Values quoted from earlier work as cited in patent US20200197364A1, “DIHYDROMYRICETIN NANOPARTICLE FORMULATIONS” (priority 2017, published 2020).

Assays:
[1] = through intestinal mucosa
[2] = in vivo
[3] = data collected by EPA

O=C1c2c(O)cc(O)cc2O[C@H](c2cc(O)c(O)c(O)c2)[C@H]1O [DHM, Dihydromyricetin]
Permeability [1]: low
Oral bioavailability [2]: less than 5%
Log P [3]: approximately 1.31
